Data from PubChem BioAssay AID330 (DTP/NCI, 2004).
“And” between values parts separate entries of the source, which are not always exact repeats. Identical values can stand only once. Toxic doses and inconclusive results are not listed. Rule for the calls: active = survival T/C of 150% or more; inactive = T/C below 125% in these data.

System: P388 leukemia ip, CD2F1 mice, survival T/C
Experiment: NCI In Vivo Anticancer Drug Screen. Data for tumor model P388 Leukemia (intraperitoneal) in CD2F1 (CDF1) mice
Conditions: endpoint: median survival time, higher = longer survival
Method in brief: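 Mice carrying the transplanted tumor received test compound or vehicle. Survival was recorded in each group, and the value is the treated-group measurement divided by that of the vehicle-treated control group.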

[1] = dose: 100.0 mg/kg/injection, schedule: Q01DX009 (ip), vehicle: saline with Tween-80
[2] = dose: 200.0 mg/kg/injection, schedule: Q01DX009 (ip), vehicle: saline with Tween-80
[3] = dose: 60.0 mg/kg/injection, schedule: Q01DX005 (ip), vehicle: saline with Tween-80
[4] = dose: 120.0 mg/kg/injection, schedule: Q01DX005 (ip), vehicle: saline with Tween-80
[5] = dose: 3.13 mg/kg/injection, schedule: Q01DX009 (ip), vehicle: saline
[6] = dose: 12.5 mg/kg/injection, schedule: Q01DX009 (ip), vehicle: saline with Tween-80
[7] = dose: 50.0 mg/kg/injection, schedule: Q01DX009 (ip), vehicle: saline with Tween-80
[8] = dose: 25.0 mg/kg/injection, schedule: Q01DX009 (ip), vehicle: saline with Tween-80

Measured: T/C

O=[N+]([O-])c1ccc(/C=C\c2ccc(Cl)cc2S(=O)(=O)F)c(Cl)c1
inactive: [1] 95 % of control | dose: 100.0 mg/kg/injection, schedule: Q04DX003 (ip), vehicle: Klucel (hydroxypropylcellulose) (HPC) 117 % of control | [2] 100 % of control | dose: 200.0 mg/kg/injection, schedule: Q04DX003 (ip), vehicle: Klucel (hydroxypropylcellulose) (HPC) 103 % of control | dose: 400.0 mg/kg/injection, schedule: Q01DX009 (ip), vehicle: saline with Tween-80 104 % of control | dose: 400.0 mg/kg/injection, schedule: Q04DX003 (ip), vehicle: Klucel (hydroxypropylcellulose) (HPC) 112 % of control

CSC(=S)N/N=C(\Cc1ccccc1)c1ccccn1
inactive: dose: 12.5 mg/kg/injection, schedule: Q01DX005 (ip), vehicle: saline with Tween-80 103 % of control | dose: 25.0 mg/kg/injection, schedule: Q01DX005 (ip), vehicle: saline with Tween-80 106 % of control | dose: 50.0 mg/kg/injection, schedule: Q01DX005 (ip), vehicle: saline with Tween-80 99 % of control and 108 % of control | dose: 100.0 mg/kg/injection, schedule: Q01DX005 (ip), vehicle: saline with Tween-80 107 % of control | dose: 200.0 mg/kg/injection, schedule: Q01DX005 (ip), vehicle: saline with Tween-80 107 % of control

CCC1(C(=O)c2ccccc2)C(C(=O)OC)=NC(=N)N=C1C(=O)OC (stereo not given)
inactive: [3] 100 % of control | [4] 95 % of control

CC(C)SC(=O)C=C(c1ccccc1)c1ccccc1
inactive: dose: 100.0 mg/kg/injection, schedule: Q01DX001 (ip), vehicle: Klucel (hydroxypropylcellulose) (HPC) 95 % of control | dose: 200.0 mg/kg/injection, schedule: Q01DX001 (ip), vehicle: Klucel (hydroxypropylcellulose) (HPC) 96 % of control | dose: 400.0 mg/kg/injection, schedule: Q01DX001 (ip), vehicle: Klucel (hydroxypropylcellulose) (HPC) 100 % of control

CCNC(=S)NN
inactive: [5] 106 % of control | dose: 6.25 mg/kg/injection, schedule: Q01DX009 (ip), vehicle: saline 114 % of control | dose: 12.5 mg/kg/injection, schedule: Q01DX009 (ip), vehicle: saline 105 % of control

S=C(NC12CC3CC(CC(C3)C1)C2)[NH][Sn]([c]1ccccc1)([c]1ccccc1)[c]1ccccc1
inactive: dose: 0.78 mg/kg/injection, schedule: Q01DX009 (ip), vehicle: saline 92 % of control | dose: 1.56 mg/kg/injection, schedule: Q01DX009 (ip), vehicle: saline 96 % of control | [5] 100 % of control | [6] 117 % of control

O=C1CCCC2C3CCCN4CCCC(CN12)C34 (stereo not given)
inactive: dose: 3.12 mg/kg/injection, schedule: Q01DX007 (ip), vehicle: carboxymethylcellulose (CMC) 100 % of control | dose: 5.0 mg/kg/injection, schedule: Q01DX009 (ip), vehicle: saline 98 % of control | dose: 6.2 mg/kg/injection, schedule: Q01DX007 (ip), vehicle: carboxymethylcellulose (CMC) 100 % of control | dose: 6.25 mg/kg/injection, schedule: Q01DX007 (ip), vehicle: carboxymethylcellulose (CMC) 100 % of control | dose: 10.0 mg/kg/injection, schedule: Q01DX009 (ip), vehicle: saline 100 % of control and 94 % of control | dose: 12.5 mg/kg/injection, schedule: Q01DX007 (ip), vehicle: carboxymethylcellulose (CMC) 91 % of control | dose: 20.0 mg/kg/injection, schedule: Q01DX009 (ip), vehicle: saline 100 % of control and 110 % of control and 95 % of control | dose: 23.0 mg/kg/injection, schedule: Q01DX007 (ip), vehicle: carboxymethylcellulose (CMC) 100 % of control | dose: 25.0 mg/kg/injection, schedule: Q01DX007 (ip), vehicle: carboxymethylcellulose (CMC) 91 % of control | dose: 40.0 mg/kg/injection, schedule: Q01DX009 (ip), vehicle: saline 102 % of control and 117 % of control and 95 % of control | dose: 80.0 mg/kg/injection, schedule: Q01DX009 (ip), vehicle: saline 98 % of control and 110 % of control and 122 % of control | dose: 160.0 mg/kg/injection, schedule: Q01DX009 (ip), vehicle: saline 102 % of control and 119 % of control

O=C(/C=C/c1ccc2c(c1)OCO2)c1ccc(Cl)cc1
inactive: [7] 86 % of control | [1] 100 % of control | [2] 95 % of control

C/C=C(/C)C(=O)OC1C[C@@]2(C)OC2C(OC(C)=O)[C@@]2(C)CC[C@@](O)(C(C)C)C12 (stereo not given in full)
inactive: dose: 35.0 mg/kg/injection, schedule: Q01DX005 (ip), vehicle: saline with Tween-80 101 % of control | dose: 70.0 mg/kg/injection, schedule: Q01DX005 (ip), vehicle: saline with Tween-80 96 % of control | dose: 140.0 mg/kg/injection, schedule: Q01DX005 (ip), vehicle: saline with Tween-80 90 % of control

c1ccc2c(c1)ncc1cccn12
inactive: dose: 50.0 mg/kg/injection, schedule: Q01DX009 (ip), vehicle: Klucel (hydroxypropylcellulose) (HPC) 106 % of control | dose: 100.0 mg/kg/injection, schedule: Q01DX009 (ip), vehicle: Klucel (hydroxypropylcellulose) (HPC) 107 % of control | dose: 200.0 mg/kg/injection, schedule: Q01DX009 (ip), vehicle: Klucel (hydroxypropylcellulose) (HPC) 105 % of control | dose: 400.0 mg/kg/injection, schedule: Q01DX009 (ip), vehicle: Klucel (hydroxypropylcellulose) (HPC) 106 % of control

CC(O)C1OC(O)C2OC(C)(C)OC12 (stereo not given)
inactive: dose: 60.0 mg/kg/injection, schedule: Q01DX005 (ip), vehicle: saline 98 % of control | dose: 120.0 mg/kg/injection, schedule: Q01DX005 (ip), vehicle: saline 95 % of control | dose: 240.0 mg/kg/injection, schedule: Q01DX005 (ip), vehicle: saline 98 % of control

CCCCN(CCCC)CCC(O)c1cc2c(Cl)cc(Cl)cc2c2cc(C(F)(F)F)ccc12 (stereo not given)
inactive: [7] 100 % of control | [1] 96 % of control

CCCC(C(=O)OC(C)CN1C(C)CCC1C)C1CCCC1 (stereo not given)
inactive: dose: 100.0 mg/kg/injection, schedule: Q01DX009 (ip), vehicle: saline 112 % of control | dose: 200.0 mg/kg/injection, schedule: Q01DX009 (ip), vehicle: saline 103 % of control | dose: 400.0 mg/kg/injection, schedule: Q01DX009 (ip), vehicle: saline 108 % of control

CC(C)NCC(O)c1ccc(NS(C)(=O)=O)cc1 (stereo not given)
inactive: dose: 50.0 mg/kg/injection, schedule: Q01DX005 (ip), vehicle: saline 108 % of control | dose: 100.0 mg/kg/injection, schedule: Q01DX005 (ip), vehicle: saline 100 % of control | dose: 200.0 mg/kg/injection, schedule: Q01DX005 (ip), vehicle: saline 104 % of control

Cc1c(C=[N+]2CCCCC2)c2ccccc2n1C
inactive: dose: 6.25 mg/kg/injection, schedule: Q01DX009 (ip), vehicle: saline with Tween-80 100 % of control | [6] 109 % of control | [8] 109 % of control and 120 % of control | [7] 104 % of control and 118 % of control | [1] 103 % of control

CCN1C(=O)C=CC1=O
inactive: dose: 1.56 mg/kg/injection, schedule: Q04DX003 (ip), vehicle: saline with Tween-80 109 % of control and 98 % of control | dose: 3.12 mg/kg/injection, schedule: Q04DX003 (ip), vehicle: saline with Tween-80 99 % of control and 96 % of control | dose: 6.25 mg/kg/injection, schedule: Q04DX003 (ip), vehicle: saline with Tween-80 99 % of control and 95 % of control

CCCCCCC(C)N=[N+]([O-])CBr (stereo not given)
inactive: dose: 100.0 mg/kg/injection, schedule: Q01DX001 (ip), vehicle: other 114 % of control | dose: 200.0 mg/kg/injection, schedule: Q01DX001 (ip), vehicle: other 111 % of control | dose: 400.0 mg/kg/injection, schedule: Q01DX001 (ip), vehicle: other 103 % of control

O=C1C2C3C=CC(C2C(=O)N1CN1CCOCC1)C1C2C(=O)N(CN4CCOCC4)C(=O)C2C31 (stereo not given)
inactive: [8] 120 % of control

CCCCCCCCCC(C)CC(=O)NCCCN(C)CCCCN(C)C (stereo not given)
inactive: dose: 0.78 mg/kg/injection, schedule: Q01DX009 (ip), vehicle: Klucel (hydroxypropylcellulose) (HPC) 107 % of control | dose: 1.56 mg/kg/injection, schedule: Q01DX009 (ip), vehicle: Klucel (hydroxypropylcellulose) (HPC) 105 % of control | dose: 3.13 mg/kg/injection, schedule: Q01DX009 (ip), vehicle: Klucel (hydroxypropylcellulose) (HPC) 112 % of control | dose: 6.25 mg/kg/injection, schedule: Q01DX009 (ip), vehicle: Klucel (hydroxypropylcellulose) (HPC) 87 % of control

O=[N+]([O-])c1cccc(/C=N/NS(=O)(=O)c2ccc(F)cc2)c1O
inactive: [3] 95 % of control | [4] 93 % of control | dose: 240.0 mg/kg/injection, schedule: Q01DX005 (ip), vehicle: saline with Tween-80 106 % of control
